Columns and labels:
adult subjects with TRD [1] = experiment: Phase 2b trial in TRD: safety, treatment emergent adverse events; assay type: in vivo, human
Source text: Another objective was to evaluate the safety and tolerability of psilocybin in subjects with TRD based on AEs, changes in vital signs, and suicidal ideation/behaviour (measured using the Columbia-Suicide Severity Rating Scale [C-SSRS]) score at all visits.
Throughout the course of the study, all adverse events (AEs) were monitored and recorded and included the AE's description, start and end date, seriousness, severity, action taken, and relationship to the treatment. If AEs occurred, the first concern was the safety of the study subjects.
An AE can therefore be any unfavorable and unintended sign (including an abnormal laboratory finding, for example), symptom, or disease temporally associated with the use of a medicinal product, whether considered related to the medicinal product.
AEs were coded by Preferred Term (PT) using the Medical Dictionary for Regulatory Activities (MedDRA) classification. All reported AEs with onset or worsening after the administration of study medication were included in the analysis. The incidence of AEs was summarized by treatment group, and by severity and relationship to psilocybin. Serious AEs and AEs leading to withdrawal from the study will be tabulated.
A TEAE is defined as any AE that has an onset on or after the dose of psilocybin, or any pre-existing condition that has worsened on or after the dose of psilocybin.
The incidence of TEAEs and treatment-related AEs were summarized by maximum severity and most-related relationship to psilocybin by MedDRA primary system organ class and PT. The summary included the total number and percentage of subjects reporting an event.

adult subjects with TRD [2] = experiment: Phase 2b trial in TRD: participants starting new treatment for depression; assay type: in vivo, human
Method: All subjects were asked to remain off their antidepressant medications for at least 3 weeks following the psilocybin session until the primary endpoint assessment, or longer. Rescue medications were allowed and described in the Rescue Medications section below. Subjects who restarted their antidepressant medications during the first 3 weeks after the psilocybin treatment administration were assessed for reasons of resuming their medications and followed until 12 weeks post-psilocybin administration.

In the case of `CN(C)CCc1c[nH]c2cccc(OP(=O)(O)O)c12` [COMP360, psilocybin], the “TEAE Euphoric mood, participants” value (adult subjects with TRD [1]; 25 mg (N = 79)) was 4 (5.1) n (%), the “TEAE Fatigue, participants” value (adult subjects with TRD [1]; 25 mg (N = 79)) was 12 (15.2) n (%) and the “TEAE Headache, participants” value (adult subjects with TRD [1]; 25 mg (N = 79)) was 27 (34.2) n (%). The “TEAE Insomnia, participants” value (adult subjects with TRD [1]; 25 mg (N = 79)) was 8 (10.1) n (%), the “TEAE Irritability, participants” value (adult subjects with TRD [1]; 25 mg (N = 79)) was 4 (5.1) n (%) and the “TEAE Mood altered, participants” value (adult subjects with TRD [1]; 25 mg (N = 79)) was 7 (8.9) n (%). For the same molecule, the “TEAE Myalgia, participants” value (adult subjects with TRD [1]; 25 mg (N = 79)) was 5 (6.3) n (%), the “TEAE Nausea, participants” value (adult subjects with TRD [1]; 25 mg (N = 79)) was 18 (22.8) n (%) and the “TEAE Panic reaction, participants” value (adult subjects with TRD [1]; 25 mg (N = 79)) was 4 (5.1) n (%). The “TEAE Paraesthesia, participants” value (adult subjects with TRD [1]; 25 mg (N = 79)) was 3 (3.8) n (%), the “TEAE Suicidal ideation, participants” value (adult subjects with TRD [1]; 25 mg (N = 79)) was 5 (6.3) n (%) and the “TEAE Thinking abnormal, participants” value (adult subjects with TRD [1]; 25 mg (N = 79)) was 0 n (%). The “TESAE Adjustment disorder with anxiety, participants” value (adult subjects with TRD [1]; 25 mg (N = 79)) was 1 (1.3) n (%), the “TESAE Adjustment disorder with mixed anxiety and depressed mood, participants” value (adult subjects with TRD [1]; 25 mg (N = 79)) was 1 (1.3) n (%) and the “TESAE Depression, participants” value (adult subjects with TRD [1]; 25 mg (N = 79)) was 0 n (%). The “TESAE Drug withdrawal syndrome*, participants” value (adult subjects with TRD [1]; 25 mg (N = 79)) was 1 (1.3) n (%), the “TESAE Hospitalisation, participants” value (adult subjects with TRD [1]; 25 mg (N = 79)) was 0 n (%) and the “TESAE Intentional self-injury, participants” value (adult subjects with TRD [1]; 25 mg (N = 79)) was 2 (2.5) n (%). The “TESAE Suicidal behaviour, participants” value (adult subjects with TRD [1]; 25 mg (N = 79)) was 3 (3.8) n (%), the “TESAE Suicidal ideation, participants” value (adult subjects with TRD [1]; 25 mg (N = 79)) was 2 (2.5) n (%) and the “Patients with TEAEs of suicidal ideation, suicidal behaviour and intentional self-injury” value (adult subjects with TRD [1]; 25 mg group) was “seven”. For the same molecule, the “Patients with TESAEs of suicidal ideation, suicidal behaviour and intentional self-injury” value (adult subjects with TRD [1]; 25 mg group) was “four”, the “MADRS item 10 (suicidality) scores post-administration, comparison of groups” value (adult subjects with TRD [1]; 25 mg, 10 mg, 1 mg groups, blinded remote rater) was “no difference between the three groups” and the “Any TESAE, participants” value (adult subjects with TRD [1]; Overall (N = 233)) was 12 (5.2) n (%). For the same molecule, the “TEAE Abdominal pain upper, participants” value (adult subjects with TRD [1]; Overall (N = 233)) was 7 (3.0) n (%), the “TEAE Anxiety, participants” value (adult subjects with TRD [1]; Overall (N = 233)) was 23 (9.9) n (%) and the “TEAE Back pain, participants” value (adult subjects with TRD [1]; Overall (N = 233)) was 9 (3.9) n (%). For the same molecule, the “TEAE Depressed mood, participants” value (adult subjects with TRD [1]; Overall (N = 233)) was 12 (5.2) n (%), the “TEAE Depression, participants” value (adult subjects with TRD [1]; Overall (N = 233)) was 15 (6.4) n (%) and the “TEAE Dizziness, participants” value (adult subjects with TRD [1]; Overall (N = 233)) was 8 (3.4) n (%). The “TEAE Euphoric mood, participants” value (adult subjects with TRD [1]; Overall (N = 233)) was 13 (5.6) n (%), the “TEAE Fatigue, participants” value (adult subjects with TRD [1]; Overall (N = 233)) was 24 (10.3) n (%) and the “TEAE Headache, participants” value (adult subjects with TRD [1]; Overall (N = 233)) was 63 (27.0) n (%). For the same molecule, the “TEAE Insomnia, participants” value (adult subjects with TRD [1]; Overall (N = 233)) was 33 (14.2) n (%), the “TEAE Irritability, participants” value (adult subjects with TRD [1]; Overall (N = 233)) was 7 (3.0) n (%) and the “TEAE Mood altered, participants” value (adult subjects with TRD [1]; Overall (N = 233)) was 11 (4.7) n (%). For the same molecule, the “TEAE Myalgia, participants” value (adult subjects with TRD [1]; Overall (N = 233)) was 8 (3.4) n (%), the “TEAE Nausea, participants” value (adult subjects with TRD [1]; Overall (N = 233)) was 29 (12.4) n (%) and the “TEAE Panic reaction, participants” value (adult subjects with TRD [1]; Overall (N = 233)) was 6 (2.6) n (%). For the same molecule, the “TEAE Paraesthesia, participants” value (adult subjects with TRD [1]; Overall (N = 233)) was 8 (3.4) n (%), the “TEAE Suicidal ideation, participants” value (adult subjects with TRD [1]; Overall (N = 233)) was 14 (6.0) n (%) and the “TEAE Thinking abnormal, participants” value (adult subjects with TRD [1]; Overall (N = 233)) was 4 (1.7) n (%). The “TESAE Adjustment disorder with anxiety, participants” value (adult subjects with TRD [1]; Overall (N = 233)) was 1 (0.4) n (%), the “TESAE Adjustment disorder with mixed anxiety and depressed mood, participants” value (adult subjects with TRD [1]; Overall (N = 233)) was 1 (0.4) n (%) and the “TESAE Depression, participants” value (adult subjects with TRD [1]; Overall (N = 233)) was 1 (0.4) n (%). For the same molecule, the “TESAE Drug withdrawal syndrome*, participants” value (adult subjects with TRD [1]; Overall (N = 233)) was 1 (0.4) n (%), the “TESAE Hospitalisation, participants” value (adult subjects with TRD [1]; Overall (N = 233)) was 1 (0.4) n (%) and the “TESAE Intentional self-injury, participants” value (adult subjects with TRD [1]; Overall (N = 233)) was 5 (2.1) n (%). For the same molecule, the “TESAE Suicidal behaviour, participants” value (adult subjects with TRD [1]; Overall (N = 233)) was 3 (1.3) n (%), the “TESAE Suicidal ideation, participants” value (adult subjects with TRD [1]; Overall (N = 233)) was 4 (1.7) n (%) and the “Patients with TEAEs of suicidal ideation, suicidal behaviour and intentional self-injury” value (adult subjects with TRD [1]; all groups) was 17 patients. The “Patients with TESAEs of suicidal ideation, suicidal behaviour and intentional self-injury” value (adult subjects with TRD [1]; all groups) was “nine”, the “TEAEs being mild or moderate in severity” value (adult subjects with TRD [1]; all groups) was “more than 90%” and the “TEAEs occurring on the day of administration that resolved on the same day or the day after” value (adult subjects with TRD [1]; all groups) was 77.4%. For the same molecule, the “TEAEs of suicidal ideation, suicidal behaviour and intentional self-injury” value (adult subjects with TRD [1]; all groups) was 27 events, the “TESAEs of suicidal ideation, suicidal behaviour and intentional self-injury” value (adult subjects with TRD [1]; all groups) was 14 events and the “TESAEs of suicidality/self-injury that occurred at least one week after the session” value (adult subjects with TRD [1]; all groups) was 10 events out of 14. For the same molecule, the “Participants reported at least one TEAE” value (adult subjects with TRD [1]; all groups (233 patients)) was 179 participants, the “Timing of suicidal behaviours after the psilocybin therapy session” value (adult subjects with TRD [1]; all patients reporting these events were non responders at event onset) was “occurred at least one month after the psilocybin therapy session” and the Tolerability (adult subjects with TRD [1]; single dose 1, 10 or 25 mg) was “generally well tolerated”. For the same molecule, the “TEAEs involving hallucination (25 mg and 10 mg groups only) and illusion (all groups): onset and resolution” value (adult subjects with TRD [1]; started on the day of administration) was “resolved on the same day”, the “Participants started new treatment for depression” value (“Participants started new treatment” for short) (adult subjects with TRD [2]; 1 mg (N = 79), Day 2) was 0 n and the “Participants started new treatment” value (adult subjects with TRD [2]; 10 mg (N = 75), Day 2) was 0 n. The “Participants started new treatment” value (adult subjects with TRD [2]; 25 mg (N = 79), Day 2) was 0 n, the “Participants started new treatment” value (adult subjects with TRD [2]; 25 mg (N = 79), Week 1) was 0 n and the “Participants started new treatment” value (adult subjects with TRD [2]; Overall (N = 233), Day 2) was 0 n.

Reference: patent US20250000881A1, “TREATMENT OF TREATMENT RESISTANT […] PSILOCYBIN” (COMPASS […], priority 2021, published 2025)
